The results in this text go back to ChEMBL document CHEMBL5365440, “Design, synthesis, and structure-activity relationship of a bicyclic HBV capsid assembly modulator chemotype leading to the identification of clinical candidate AB-506” (Bioorg Med Chem Lett, 2023).

One data set has as its target Cytochrome P450 3A4 (Homo sapiens, UniProt P08684). Description: Inhibition of CYP3A4 (unknown origin). It counts as ADME.
A further data set addresses Cytochrome P450 2D6 (Homo sapiens, UniProt P10635). Description: Inhibition of CYP2D6 (unknown origin). Format: ADME.
For a further data set, the target named is Cytochrome P450 2C9 (Homo sapiens, UniProt P11712). Description: Inhibition of CYP2C9 (unknown origin). Format: ADME.
Another data set has as its target Cytochrome P450 2C19 (Homo sapiens, UniProt P33261). Description: Inhibition of CYP2C19 (unknown origin). It counts as ADME.
For the next data set, the target named is T1, Cytochrome P450 1A2 (Homo sapiens, UniProt P05177).
T1 sequence (P05177 whole entry): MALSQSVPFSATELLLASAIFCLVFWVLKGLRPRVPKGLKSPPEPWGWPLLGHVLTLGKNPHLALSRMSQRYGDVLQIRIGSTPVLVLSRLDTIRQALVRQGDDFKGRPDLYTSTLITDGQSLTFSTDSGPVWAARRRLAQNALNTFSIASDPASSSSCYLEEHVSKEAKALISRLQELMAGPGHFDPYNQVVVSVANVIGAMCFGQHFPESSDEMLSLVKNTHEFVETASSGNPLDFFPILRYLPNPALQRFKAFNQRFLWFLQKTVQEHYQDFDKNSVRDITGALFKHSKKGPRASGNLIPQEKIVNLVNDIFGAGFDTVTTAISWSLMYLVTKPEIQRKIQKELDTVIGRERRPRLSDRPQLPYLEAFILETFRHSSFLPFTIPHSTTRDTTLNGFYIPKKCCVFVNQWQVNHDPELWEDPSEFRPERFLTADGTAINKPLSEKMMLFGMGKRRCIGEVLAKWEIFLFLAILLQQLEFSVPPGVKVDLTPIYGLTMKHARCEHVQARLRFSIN
Description: Inhibition of CYP1A2 (unknown origin). It counts as ADME.

A short description of data set [1]: Cmax in rat at 10 mg/kg,po. Format: ADME, organism-based. Particulars: in vivo. More on the design: dose 10 mg/kg, route po.
Data set [2] in a line: Cmax in dog at 10 mg/kg,po. The following applies: in vivo. It counts as ADME, organism-based, Canis lupus familiaris. The arrangement: dose 10 mg/kg, route po.
Data set [3] in a line: Half life in rat at 2 mg/kg,iv. Format: ADME, organism-based. The following applies: in vivo.
The subject of data set [4] is Hepatitis B virus. Description: Antiviral activity against Hepatitis B virus Genotype D infected in NOD.CB17-PrkdcSCID/J mouse model assessed as log reduction in serum HBV DNA level at 10 mg/kg,po dosed for 7 consecutive days by qPCR analysis. Format: functional. In general terms: In qPCR the cycle at which signal appears reflects the starting amount.
Data set [5] concerns Hepatitis B virus. Description: Antiviral activity against Hepatitis B virus Genotype D infected in NOD.CB17-PrkdcSCID/J mouse model assessed as reduction in serum HBV DNA level at po dosed for 7 consecutive days. It counts as functional, organism-based.
The subject of data set [6] is Hepatitis B virus. Description: Antiviral activity against Hepatitis B virus infected in human HepDE19 cells assessed as reduction in viral replication incubated for 3 to 7 days by PCR analysis. It counts as functional, organism-based.
A short description of data set [7]: Microsomal stability in human liver microsomes assessed as intrinsic clearance. It counts as ADME, Microsome. The following applies: read-out: CLH.
Data set [8] can be described thus: Microsomal stability in mouse liver microsomes assessed as intrinsic clearance. Format: ADME, Microsome. The following applies: read-out: CLH. In general terms: Liver microsomes are vesicles of endoplasmic reticulum, rich in cytochrome P450 enzymes.
Data set [9] in a line: Aqueous solubility of the compound in PBS buffer at pH 7.4. It counts as physicochemical.
A short description of data set [10]: AUC (0-infinity) in CD-1 mouse at 10 mg/kg,po. The following applies: in vivo. Format: ADME, organism-based. More on the design: dose 10 mg/kg, route po.
Data set [11] can be described thus: Half life in CD-1 mouse at 2 mg/kg,iv. It counts as ADME, organism-based. The following applies: in vivo.
Data set [12] is described as follows: Clearance in CD-1 mouse at 2 mg/kg,iv. Format: ADME, organism-based. Particulars: in vivo.
Data set [13] in a line: Half life in dog at 2 mg/kg,iv. Format: ADME, organism-based, Canis lupus familiaris. The following applies: in vivo.
A short description of data set [14]: Clearance in rat at 2 mg/kg,iv. Format: ADME, organism-based. The following applies: in vivo.
Data set [15] can be described thus: Clearance in dog at 2 mg/kg,iv. It counts as ADME, organism-based, Canis lupus familiaris. Particulars: in vivo.
Data set [16] relates to Hepatitis B virus. Description: Antiviral activity against Hepatitis B virus Genotype D infected in NOD.CB17-PrkdcSCID/J mouse model assessed as log reduction in serum HBV DNA level at 30 mg/kg,po dosed for 7 consecutive days by qPCR analysis. Format: functional.
In data set [17] the test system is Hepatitis B virus. Description: Antiviral activity against Hepatitis B virus Genotype D infected in NOD.CB17-PrkdcSCID/J mouse model assessed as log reduction in serum HBV DNA level at 100 mg/kg,po dosed for 7 consecutive days by qPCR analysis. Format: functional.
Data set [18] is described as follows: in vivo. Particulars: rat, po, 10 mg/kg.
Description: AUC (0-infinity) in rat at 10 mg/kg,po
Data set [19] can be described thus: in vivo. Particulars: dog, po, 10 mg/kg.
Description: AUC (0-infinity) in dog at 10 mg/kg,po

Converted amounts (≈) assume the structure as drawn.

The term IC50 denotes the point on the concentration scale where inhibition reaches its midpoint. Read a high IC50 as a need for much substance. As a reminder, the Cmax is the maximum level reached in the sampled fluid or tissue. One may read the half-life as how long it takes for the measured level to halve. Higher therefore signals slow decline. Broadly, the EC50 is the concentration needed to bring the measured effect to its halfway point. What is called solubility is the concentration that dissolves in the medium under given conditions. Low values mean a poorly soluble substance, high ones a readily soluble substance. Usually AUC(0-inf) stands for total exposure, with the tail of the curve extrapolated. A low value points to less exposure. For orientation: clearance means the volume of plasma or blood freed of the substance per unit of time.

Chain of Cytochrome P450 2C9 (P11712 whole entry): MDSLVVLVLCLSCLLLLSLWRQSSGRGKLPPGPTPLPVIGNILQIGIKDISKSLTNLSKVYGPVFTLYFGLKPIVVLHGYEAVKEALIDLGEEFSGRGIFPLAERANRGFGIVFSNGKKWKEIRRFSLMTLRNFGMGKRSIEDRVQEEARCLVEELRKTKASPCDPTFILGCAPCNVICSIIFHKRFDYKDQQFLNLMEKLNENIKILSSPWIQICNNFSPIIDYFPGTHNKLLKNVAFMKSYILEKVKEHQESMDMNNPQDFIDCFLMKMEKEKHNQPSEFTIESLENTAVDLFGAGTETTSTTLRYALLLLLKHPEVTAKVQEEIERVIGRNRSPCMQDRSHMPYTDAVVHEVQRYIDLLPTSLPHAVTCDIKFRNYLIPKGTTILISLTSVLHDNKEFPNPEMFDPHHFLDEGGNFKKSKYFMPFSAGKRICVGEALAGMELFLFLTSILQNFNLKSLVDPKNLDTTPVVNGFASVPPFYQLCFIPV
Chain of Cytochrome P450 2D6 (P10635 whole entry): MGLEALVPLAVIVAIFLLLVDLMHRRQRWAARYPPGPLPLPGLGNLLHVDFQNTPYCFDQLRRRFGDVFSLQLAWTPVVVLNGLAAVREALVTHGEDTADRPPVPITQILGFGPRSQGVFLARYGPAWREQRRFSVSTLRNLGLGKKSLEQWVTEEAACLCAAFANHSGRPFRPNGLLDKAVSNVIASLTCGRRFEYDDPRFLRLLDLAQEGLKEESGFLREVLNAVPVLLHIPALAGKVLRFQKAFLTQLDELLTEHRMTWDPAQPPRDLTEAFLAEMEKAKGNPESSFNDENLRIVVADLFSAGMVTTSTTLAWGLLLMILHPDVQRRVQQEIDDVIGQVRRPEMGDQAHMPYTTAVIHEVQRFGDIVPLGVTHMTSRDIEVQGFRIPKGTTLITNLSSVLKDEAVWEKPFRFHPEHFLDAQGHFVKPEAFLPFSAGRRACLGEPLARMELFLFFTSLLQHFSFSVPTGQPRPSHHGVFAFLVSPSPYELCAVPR
Chain of Cytochrome P450 3A4 (P08684 whole entry): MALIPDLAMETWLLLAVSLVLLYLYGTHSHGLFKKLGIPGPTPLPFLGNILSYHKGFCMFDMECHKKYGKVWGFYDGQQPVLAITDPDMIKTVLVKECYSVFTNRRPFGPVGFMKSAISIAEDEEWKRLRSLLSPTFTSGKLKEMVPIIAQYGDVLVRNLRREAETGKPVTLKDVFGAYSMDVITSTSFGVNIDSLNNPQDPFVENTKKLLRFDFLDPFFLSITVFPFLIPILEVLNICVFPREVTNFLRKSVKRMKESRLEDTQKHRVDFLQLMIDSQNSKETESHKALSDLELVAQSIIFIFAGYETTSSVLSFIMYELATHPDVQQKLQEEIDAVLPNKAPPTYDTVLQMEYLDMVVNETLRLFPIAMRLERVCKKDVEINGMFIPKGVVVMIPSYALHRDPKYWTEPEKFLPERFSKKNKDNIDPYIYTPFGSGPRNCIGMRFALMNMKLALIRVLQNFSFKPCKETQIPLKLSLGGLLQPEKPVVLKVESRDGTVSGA
Chain of Cytochrome P450 2C19 (P33261 whole entry): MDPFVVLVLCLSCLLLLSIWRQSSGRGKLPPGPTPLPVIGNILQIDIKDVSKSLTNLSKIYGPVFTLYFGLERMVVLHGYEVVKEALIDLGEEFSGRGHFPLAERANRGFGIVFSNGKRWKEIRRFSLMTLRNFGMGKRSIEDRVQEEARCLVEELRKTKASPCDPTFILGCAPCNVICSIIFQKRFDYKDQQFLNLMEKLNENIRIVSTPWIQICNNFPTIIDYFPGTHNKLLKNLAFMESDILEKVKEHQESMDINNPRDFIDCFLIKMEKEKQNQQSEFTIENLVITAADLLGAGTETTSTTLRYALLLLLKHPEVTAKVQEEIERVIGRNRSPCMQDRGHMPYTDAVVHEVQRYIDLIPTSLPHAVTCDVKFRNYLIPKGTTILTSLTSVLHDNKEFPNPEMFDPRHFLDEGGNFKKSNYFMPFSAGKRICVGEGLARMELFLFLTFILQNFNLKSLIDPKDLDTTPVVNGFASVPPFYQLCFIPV

Regarding `Cn1cnc(COC(=O)N[C@H]2CCc3c(C(=O)Nc4ccc(F)c(Cl)c4)ccc(F)c32)n1`, the IC50 at Cytochrome P450 3A4, at Cytochrome P450 2D6, against Cytochrome P450 2C9, against Cytochrome P450 2C19 and on Cytochrome P450 1A2 was over 20 µM in each case. The results for the Cmax in [1] and in data set [2] were 2850 ng/mL and 6820 ng/mL, respectively. In addition, the results for the half-life in data set [3], in [11] and in data set [13] were 3.2 h, 2.5 h and 11.4 h, respectively. Moreover, the Activity is 1 log10CFU in the data set on Hepatitis B virus [4], “Dose-Dependent Effect” in the data set with Hepatitis B virus [5], 2.4 log10CFU with Hepatitis B virus [16] and 2.9 log10CFU in the data set with Hepatitis B virus [17]. Besides, in the data set on Hepatitis B virus [6], the EC50 turned out to be 0.077 µM. Also, the figures for the microsomal CLint in data set [7] and in [8] were 6.2 µL/min/mg and 21 µL/min/mg, respectively. In [9], this compound displayed a solubility of 14.8 µM (≈ 6.84 µg/mL). The AUC(0-inf) in [10] is 9870 ng·h/mL; in “in vivo [18]” it was 39600 ng·h/mL; in “in vivo [19]”, 134000 ng·h/mL. Besides, the clearance was determined as 18 mL/min/kg in [12], 4.6 mL/min/kg in data set [14] and 1.25 mL/min/kg in data set [15].
